Source: ChEMBL document CHEMBL4725262, “Potent antiviral activity of novel multi-substituted 4-anilinoquin(az)olines” (Bioorg Med Chem Lett, 2020)

Legend:
[1] = Cytotoxicity against human Huh-7 cells infected with DENV2 by alamar blue assay; assay type: cell-based
dengue virus type 2 [2] = test: Antiviral activity against DENV2 New Guinea C strain infected in Huh7 cells after 48 hrs by renilla luciferase assay; assay type: functional, organism-based, Huh-7; details: for EC90: Huh-7, time 48 hrs
dengue virus type 2 [3] = test: Potency index, ratio of erlotinib EC50 to compound EC50 for antiviral activity against DENV2 New Guinea C strain infected in Huh7 cells after 48 hrs by renilla luciferase assay; assay type: functional, Huh-7
[4] = Selectivity index, ratio of CC50 for human Huh7 cells to EC50 for DENV2 New Guinea C; assay type: toxicity; details: read-out: Ratio CC50/EC50
[5] = Dengue virus, New Guinea C, Huh-7, 48 h

Row | SMILES | CC50 [1] | EC50 (dengue virus type 2 [2]; [5]) | Ratio EC50 (dengue virus type 2 [3]) | EC50 (dengue virus type 2 [2]; huh-7) | EC90 (dengue virus type 2 [2]; Dengue virus, New Guinea C) | selectivity ratio [4]
1 | COc1ccc2ncnc(Nc3cc(OC)c(OC)c(OC)c3)c2c1 | > 10 µM | > 10 µM |  |  |  | 
2 | COc1cc(Nc2ncnc3ccc(Cl)cc23)cc(OC)c1OC | > 10 µM | 1 µM | >10 |  |  | 
3 | Clc1ccc(-c2ccc(-c3nc(NCc4cccnc4)nc4ccccc34)s2)cc1 |  | 0.07 µM |  |  |  | 
4 | CC(C)(C)Oc1cccc2nc(N)nc(N)c12 |  | 0.0028 µM |  |  |  | 
5 | COc1cc2ncnc(Nc3cc(OC)c(OC)c(OC)c3)c2cc1OC | > 10 µM | 6.6 µM |  |  |  | 
6 | COc1cc2nccc(Nc3cc(OC)c(OC)c(OC)c3)c2cc1OC | > 10 µM | > 10 µM |  |  |  | 
7 | COc1cc(Nc2ccnc3cc(Cl)ccc23)cc(OC)c1OC | > 10 µM | > 10 µM |  |  |  | 
8 | COc1cc(-c2cnc3c(N4C[C@@H](C)O[C@@H](C)C4)snc3c2)ccc1N |  | 0.87 µM |  |  |  | 
9 | COc1ccc(-c2cnc3[nH]cc(C#Cc4cccnc4)c3c2)cc1OC |  | 0.72 µM |  |  |  | 
10 | COc1cc(Nc2ccnc3ccc(Br)cc23)cc(OC)c1OC | > 10 µM | 0.08 µM | >80 | 0.122 µM |  | 
11 | COc1cc(Nc2ncnc3ccc(C(F)(F)F)cc23)cc(OC)c1OC | > 10 µM | > 10 µM |  |  |  | 
12 | CCN(CC)c1ccc(Oc2ccc(-c3[nH]c4cccc(F)c4c(=O)c3C)cc2F)cc1 |  | 0.007 µM |  |  |  | 
13 | COc1cc(N(C)c2ccnc3ccc(C(F)(F)F)cc23)cc(OC)c1OC | > 10 µM | 10 µM |  |  |  | 
14 | COc1cc(Nc2ccnc3ccc(I)cc23)cc(OC)c1OC | > 10 µM | 0.82 µM |  |  |  | 
15 | COc1cc(Nc2cc(C)nc3ccc(C(F)(F)F)cc23)cc(OC)c1OC | > 10 µM | 0.91 µM |  |  |  | 
16 | COc1cc(Nc2ccnc3ccc(Cl)cc23)cc(OC)c1OC | > 10 µM | 0.52 µM |  |  |  | 
17 | COc1cc(Nc2ccnc3cc(C#N)ccc23)cc(OC)c1OC | > 10 µM | 3.3 µM |  |  |  | 
18 | COc1cc(Nc2ccnc3ccc(C#N)cc23)cc(OC)c1OC | > 10 µM | 0.76 µM |  |  |  | 
19 | COc1ccc2c(Nc3cc(OC)c(OC)c(OC)c3)ccnc2c1 | > 10 µM | > 10 µM |  |  |  | 
20 | COc1cc(Nc2ccnc3ccccc23)cc(OC)c1OC | > 10 µM | 8.2 µM |  |  |  | 
21 | COc1ccc2nccc(Nc3cc(OC)c(OC)c(OC)c3)c2c1 | > 10 µM | 0.75 µM | 8 |  |  | 
22 | COc1cc(Nc2ccnc3cc(I)ccc23)cc(OC)c1OC | > 10 µM | 3.6 µM | 2 |  |  | 

Row | SMILES | CC50 [1] | EC50 (dengue virus type 2 [2]; [5]) | Ratio EC50 (dengue virus type 2 [3]) | EC50 (dengue virus type 2 [2]; huh-7) | EC90 (dengue virus type 2 [2]; Dengue virus, New Guinea C) | selectivity ratio [4]
23 | COc1cc(Nc2ncnc3ccccc23)cc(OC)c1OC | > 10 µM | 2.8 µM | 2 |  |  | 
24 | COc1cc(Nc2ccnc3ccc(F)cc23)cc(OC)c1OC | > 10 µM | 5.2 µM |  |  |  | 
25 | COc1cc(Nc2c(C#N)cnc3ccc(S(C)(=O)=O)cc23)cc(OC)c1OC | > 10 µM | > 10 µM |  |  |  | 
26 | COc1cc(Nc2c(C#N)cnc3ccc(Br)cc23)cc(OC)c1OC | > 10 µM | 0.082 µM | >80 |  | 151 nM | 
27 | COc1cc(Nc2ccnc3cc(C(F)(F)F)ccc23)cc(OC)c1OC | > 10 µM | 6.8 µM |  |  |  | 
28 | COc1cc(Nc2ccnc3ccc(S(C)(=O)=O)cc23)cc(OC)c1OC | > 10 µM | 0.84 µM |  |  |  | 
29 | COc1cc(Nc2c(C#N)cnc3cc(Cl)ccc23)cc(OC)c1OC | > 10 µM | > 10 µM |  |  |  | 
30 | COc1cc(Nc2c(C#N)cnc3cc(Br)ccc23)cc(OC)c1OC | > 10 µM | > 10 µM |  |  |  | 
31 | COc1cc(Nc2ncnc3ccc(F)cc23)cc(OC)c1OC | > 10 µM | > 10 µM |  |  |  | 
32 | COc1ccc2c(Nc3cc(OC)c(OC)c(OC)c3)c(C#N)cnc2c1 | > 10 µM | > 10 µM |  |  |  | 
33 | COc1cc(Nc2cc(C)nc3ccc(Br)cc23)cc(OC)c1OC | 2.5 µM | 0.28 µM | >20 |  | 530 nM | 10
34 | COc1cc(Nc2ncnc3ccc(S(C)(=O)=O)cc23)cc(OC)c1OC | > 10 µM | > 10 µM |  |  |  | 
35 | COc1cc(Nc2ccnc3cc(F)ccc23)cc(OC)c1OC | > 10 µM | 4.1 µM |  |  |  | 
36 | COc1cc(Nc2c(C#N)cnc3ccc(Cl)cc23)cc(OC)c1OC | > 10 µM | 1.3 µM |  |  |  | 
37 | COc1cc(Nc2cc(C)nc3ccc(F)cc23)cc(OC)c1OC | > 10 µM | 2.3 µM |  |  |  | 
38 | COc1cc(Nc2cc(C)nc3cc(C(F)(F)F)ccc23)cc(OC)c1OC | > 10 µM | > 10 µM |  |  |  | 
39 | COc1ccc2nc(C)cc(Nc3cc(OC)c(OC)c(OC)c3)c2c1 | > 10 µM | 10 µM |  |  |  | 
40 | COc1cc(Nc2ncnc3cc(F)c(F)cc23)cc(OC)c1OC | > 10 µM | > 10 µM | >10 |  |  | 
41 | COc1cc(Nc2c(C#N)cnc3ccc(I)cc23)cc(OC)c1OC | > 10 µM | 0.079 µM | >80 |  | 125 nM | 
42 | COc1cc(Nc2ccnc3cc(F)c(F)cc23)cc(OC)c1OC | 5.5 µM | 1 µM |  |  |  | 
43 | COc1cc(Nc2ccnc3c(C)cccc23)cc(OC)c1OC | > 10 µM | > 10 µM |  |  |  | 
44 | COc1ccc2c(Nc3cc(OC)c(OC)c(OC)c3)cc(C)nc2c1 | > 10 µM | > 10 µM |  |  |  | 

Row | SMILES | CC50 [1] | EC50 (dengue virus type 2 [2]; [5]) | Ratio EC50 (dengue virus type 2 [3]) | EC50 (dengue virus type 2 [2]; huh-7) | EC90 (dengue virus type 2 [2]; Dengue virus, New Guinea C) | selectivity ratio [4]
45 | COc1cc(Nc2c(C#N)cnc3cc(I)ccc23)cc(OC)c1OC | > 10 µM | 4.7 µM |  |  |  | 
46 | COc1cc(Nc2ncnc3cc(Cl)ccc23)cc(OC)c1OC | > 10 µM | 6.1 µM |  |  |  | 
47 | COc1cc(Nc2ccnc3cc(Br)ccc23)cc(OC)c1OC | > 10 µM | 8.4 µM |  |  |  | 
48 | COc1cc2nc(C)cc(Nc3cc(OC)c(OC)c(OC)c3)c2cc1OC | > 10 µM | 10 µM |  |  |  | 
49 | COc1cc(Nc2ncnc3ccc(Br)cc23)cc(OC)c1OC | > 10 µM | 0.97 µM |  |  |  | 
50 | COc1cc(Nc2ncnc3cc(I)ccc23)cc(OC)c1OC | 5.8 µM | 2.9 µM |  |  |  | 
51 | COc1cc(Nc2c(C#N)cnc3ccccc23)cc(OC)c1OC | > 10 µM | > 10 µM |  |  |  | 
52 | COc1cc(Nc2ncnc3ccc(I)cc23)cc(OC)c1OC | > 10 µM | 1 µM |  |  |  | 
53 | COc1cc(Nc2ncnc3ccc(C#N)cc23)cc(OC)c1OC | > 10 µM | 3.7 µM |  |  |  | 
54 | COc1cc(Nc2ncnc3cc(C(F)(F)F)ccc23)cc(OC)c1OC | > 10 µM | 5.1 µM |  |  |  | 
55 | COc1ccc2c(Nc3cc(OC)c(OC)c(OC)c3)ncnc2c1 | > 10 µM | 2.7 µM | 2 |  |  | 
56 | COc1ccc2ncc(C#N)c(Nc3cc(OC)c(OC)c(OC)c3)c2c1 | > 10 µM | 3.1 µM |  |  |  | 
57 | COc1cc(Nc2ncnc3cc(F)ccc23)cc(OC)c1OC | > 10 µM | > 10 µM |  |  |  | 
58 | COc1cc(Nc2ncnc3cc(C#N)ccc23)cc(OC)c1OC | > 10 µM | 1.4 µM |  |  |  | 
59 | COc1cc(Nc2ncnc3ccc(C)cc23)cc(OC)c1OC | > 10 µM | > 10 µM |  |  |  | 
60 | COc1cc(Nc2cc(C)nc3ccccc23)cc(OC)c1OC | > 10 µM | 8 µM |  |  |  | 
61 | COc1cc(Nc2ncnc3cc(Br)ccc23)cc(OC)c1OC | > 10 µM | 2 µM |  |  |  | 
62 | COc1cc(Nc2ccnc3ccc(C(C)(C)C)cc23)cc(OC)c1OC | > 10 µM | 7.4 µM |  |  |  | 
63 | COc1cc(Nc2ccnc3ccc(C(F)(F)F)cc23)cc(OC)c1OC | > 10 µM | 0.59 µM |  |  |  | 
64 | COc1cc2ncc(C#N)c(Nc3cc(OC)c(OC)c(OC)c3)c2cc1OC | > 10 µM | 5.5 µM |  |  |  | 
65 | C#Cc1cccc(Nc2ncnc3cc(OCCOC)c(OCCOC)cc23)c1 [ERLOTINIB] |  | 6.5 µM |  |  |  | 
